Two compounds from patent US10857105B2, “Compounds and compositions for intracellular delivery of therapeutic agents” (ModernaTX, Inc., priority 2017, dated 2020) can be followed below.

The structures appear in SMILES notation.

For one data set, the system named is mouse liver tissue. The data set can be described thus: Disappearance of parent lipid and primary metabolite from mouse liver after 0.25 mg/kg mRNA on days 1, 8 and 15. It is filed as in vivo. The protocol:
In vitro metabolite identification studies using compound 18 were also performed. […] The disappearance of parent compound 18 and the primary metabolite, compound 166, from mouse liver tissue was measured after dosing 0.25 mg/kg mRNA on days 1, 8, and 15.

Data set [1] is described as follows: Complement activation indicators in non-human primates. It is filed as in vivo. The protocol:
(§1) The tolerability and efficacy of nanoparticle compositions to non-human primates was also investigated using a sample formulation including Compound 18. The formulation was prepared according to the standard MC3 formulation described above and included an hEPO mRNA. Primates were administered a single dose of 0.05 (Group 1), 0.3 (Group 2), or 1.0 (Group 3) mpk via intravenous infusion for 60 minutes. Three primates were administered each dose. Expression of hEPO was measured prior to dosing and at 2, 6, 24, 48, and 96 hours post-treatment (Table 26). Table 28 includes levels of indicators of complement activation, while Table 29 includes cytokine induction data.

Data set [2] can be described thus: Protein expression with nanoparticle composition containing Compound 18 versus MC3 counterpart, 0.1 and 0.3 mpk. It is filed as in vivo. As to conditions: dose response between 0.1 and 0.3 mpk.
Data set [3] in a line: Tolerability (AST, ALT, clinical signs, hematology) in non-human primates. The conditions noted are these: single dose 0.05, 0.3 or 1.0 mpk, intravenous infusion 60 minutes. It is filed as in vivo. On the procedure:
as §1
In general, lower doses were better tolerated. High doses induced body temperature elevation and hunched posture, which is similar to the behavior observed for primates administered higher doses of MC3 formulations.

The test system of a further data set is hEPO mRNA. The data set can be described thus: hEPO expression after subcutaneous administration to mice. It is filed as in vivo, CD-1 mice. The conditions noted are these: 6 hr. time point, relative to MC3. On the procedure:
The numbers 1-11 in this figure correspond to MC3, PBS, and Compounds 18, 25, 48, 49, 111, 60, 168, 207, and 233, respectively.
FIG. 27 is a graph showing the hEPO mRNA expression in CD1-mice measured 3 h (left block), 6 h (middle block) and 24 h (right block) after subcutaneous administration of various nanoparticle compositions at 0.5 mpk. Numbers 1-9 refer to compositions containing an mRNA expressing hEPO and the following: 1: PBS, 2: Compound 18, 3: Compound 30; 4: Compound 96; 5: Compound 151; 6: Compound 98; 7: Compound 163; 8: Compound 164; 9: Compound 165.

Another data set deals with female CD-1 mice. The data set can be described thus: Luciferase expression after subcutaneous administration of lipid/mRNA formulations (whole body BLI). It is filed as in vivo. As to conditions: 0.5 mpk. The protocol:
The effect of the lipids of the disclosure on protein expression upon subcutaneous administration was studied. Formulations containing lipids of the disclosure and an mRNA expressing luciferase or hEPO were administered subcutaneously to female CD-1 mice at 0.5 mpk. Expression levels were obtained via whole body luminescent imaging (BLI) at 3, 6 and 24 hours after injection and expression levels in liver, spleen and at the injection site were evaluated ex vivo after 24 hours. […] See also Tables 35 and 36, and FIGS. 19 and 27.
Table 35 summarizes the luciferase expression levels using various nanoparticle compositions of the disclosure, and the luciferase expression levels using various nanoparticle compositions 6f the disclosure as compared to the luciferase expression level using an MC3 formulation after subcutaneous administration, as described above.

The subject of the next data set is sC5b-9. The data set can be described thus: Complement activation: sC5b-9 levels in human cells contacted in vitro with nanoparticle compositions. It is filed as cell-based. The protocol:
Complement activation assists in the clearance of pathogens from an organism. As it is undesirable that a subject's body recognize a nanoparticle composition as a foreign invader, low complement system activation upon administration of such a composition is preferred. The complex sC5b-9 is a marker for the activation of the complement system. Thus, human cells were contacted in vitro with nanoparticle compositions according to Table 1A and were evaluated for sC5b-9 levels.

Data set [4] is described as follows: Alanine aminotransferase (ALT) and aspartate aminotransferase (AST) in rat after intravenous administration. It is filed as in vivo. On the procedure: Table 19A summarizes the hEPO expression, IP-10 induction, liver and spleen levels, and alanine aminotransferase (ALT) and aspartate aminotransferase (AST) measured upon intravenous administration of formulations including Compounds 48, 49, and 50 to rat at 0.2 and 2 mpk and hEPO mRNA. hEPO concentrations were measured 6 hours after administration, while cytokine induction and liver and spleen levels were measured 48 hours after administration. hEPO and IP-10 concentrations are presented in pg/ml, while liver levels are provided in ng/g. ALT and AST levels are presented in international units.

With `CCCCCCCCCOC(=O)CCCCCCCN(CCO)CCCCCCCC(=O)OC(CCCCCCCC)CCCCCCCC` [Compound 18, Heptadecan-9-yl 8-((2-hydroxyethyl)(8-(nonyloxy)-8-oxooctyl)amino)octanoate], in the data set with mouse liver tissue, the “clearance from mouse liver tissue” value is “rapid clearance”. Further, the Bb fragment was 5341 ng/mL in data set [1] (Group 1 (0.05 mpk), 2 h); 3037 ng/mL in data set [1] (Group 1 (0.05 mpk), 6 h); 1496 ng/mL in data set [1] (Group 1 (0.05 mpk), 24 h); 1273 ng/mL in data set [1] (Group 1 (0.05 mpk), Day 5); 1375 ng/mL in data set [1] (Group 1 (0.05 mpk), Predose); 5356 ng/mL in data set [1] (Group 2 (0.3 mpk), 2 h). The Bb fragment in data set [1] (Group 2 (0.3 mpk), 6 h) was determined as 7157 ng/mL; in data set [1] (Group 2 (0.3 mpk), 24 h) it was 3680 ng/mL; in data set [1] (Group 2 (0.3 mpk), Day 5), 2400 ng/mL; in data set [1] (Group 2 (0.3 mpk), Predose) it was 1461 ng/mL; in data set [1] (Group 3 (1.0 mpk), 2 h), 8849 ng/mL; in data set [1] (Group 3 (1.0 mpk), 6 h), 12820 ng/mL. The Bb fragment was determined as 8601 ng/mL in data set [1] (Group 3 (1.0 mpk), 24 h); 2834 ng/mL in data set [1] (Group 3 (1.0 mpk), Day 5); 1529 ng/mL in data set [1] (Group 3 (1.0 mpk), Predose). Besides, the C5b9 amounted to 1959 ng/mL in data set [1] (Group 1 (0.05 mpk), 2 h); 786 ng/mL in data set [1] (Group 1 (0.05 mpk), 6 h); 169 ng/mL in data set [1] (Group 1 (0.05 mpk), Predose); 393 ng/mL in data set [1] (Group 2 (0.3 mpk), 2 h); 1333 ng/mL in data set [1] (Group 2 (0.3 mpk), 6 h); 157 ng/mL in data set [1] (Group 2 (0.3 mpk), Predose). Besides, the C5b9 in data set [1] (Group 3 (1.0 mpk), 2 h) was determined as 801 ng/mL; in data set [1] (Group 3 (1.0 mpk), 6 h) it was 2928 ng/mL; in data set [1] (Group 3 (1.0 mpk), Predose) it was 238 ng/mL. In addition, the C3a amounted to 12385 ng/mL in data set [1] (Group 1 (0.05 mpk), 6 h); 11596 ng/mL in data set [1] (Group 1 (0.05 mpk), 24 h); 11945 ng/mL in data set [1] (Group 1 (0.05 mpk), Day 5); 32436 ng/mL in data set [1] (Group 2 (0.3 mpk), 6 h); 19721 ng/mL in data set [1] (Group 2 (0.3 mpk), 24 h); 16207 ng/mL in data set [1] (Group 2 (0.3 mpk), Day 5). The C3a in data set [1] (Group 3 (1.0 mpk), 6 h) is 51996 ng/mL; in data set [1] (Group 3 (1.0 mpk), 24 h) it was 35843 ng/mL; in data set [1] (Group 3 (1.0 mpk), Day 5), 19101 ng/mL. For the same compound, in data set [2], the “0.3 mpk AUC relative to 0.1 mpk dose AUC” value was “about three times”. In addition, in data set [3], the Tolerability result is “tolerated similarly to the MC3 formulation”. Moreover, in the data set with hEPO mRNA, the “Novel lipid/MC3 expression ratio, s.c. hEPO 0.5 mpk” value is 4.26.
`CCCCCC=CCC=CCCCCCCCCC(CCCCCCCCC=CCC=CCCCCC)OC(=O)CCCN(C)C` (centres unmarked) [MC3, heptatriaconta-6,9,28,31-tetraen-19-yl 4-(dimethylamino)butanoate, reference compound]: the “Lipid/MC3 AUC ratio (luciferase)” value in the data set with female CD-1 mice amounted to 1. For the same compound, the “Luciferase expression AUC” value in the data set with female CD-1 mice (BLI at 3, 6 and 24 hours) is given as 1.7127E+10 (p/s)*h. For the same compound, the “Fold increase in sC5b-9 levels versus saline” value with sC5b-9 is listed as 0.73. For the same compound, the ALT was found to be 63.6 international units in data set [4] (intravenous 0.2 mpk) and 79.6 international units in data set [4] (intravenous 2 mpk). In addition, the results for the AST in data set [4] (intravenous 0.2 mpk) and in data set [4] (intravenous 2 mpk) were 134.8 international units and 139.0 international units, respectively.
